This note sets out measurements from US20200031778A1, “NOVEL 5-SUBSTITUTED IMIDAZOLYLMETHYL DERIVATIVES” (Bayer CropScience Aktiengesellschaft, priority 2016, published 2020).

Data set [1] in a line: Log P by HPLC on reversed phase columns (EEC directive 79/831 Annex V.A8; methods [a], [b], [c]). The data set is classed as physicochemical. Conditions: reversed phase HPLC column; method [a]: LC-UV, acidic range, 0.1% formic acid in water and acetonitrile as eluent (linear gradient from 10% to 95% acetonitrile). The gist of the method:
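Reversed-phase HPLC with LC-UV detection, 10→95% acetonitrile linear gradient; aqueous eluent 0.1% formic acid [a], 0.001 M ammonium acetate, neutral [b], or 0.1% phosphoric acid [c]. Calibrated against C3–C16 alkan-2-ones of known Log P by retention-time linear interpolation; multiple values within a method separated by "+".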

The test system of data set [2] is Septoria tritici. Put plainly: Example IX-B: in vivo preventive test on Septoria tritici (leaf spot on wheat). As to conditions: Zymoseptoria tritici, 576 h; compounds of formula IX; 500 ppm of active ingredient; wheat plants, preventive spray; evaluated 24 days after inoculation; read-out: efficacy. The gist of the method:
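Wheat seedlings sprayed preventively with compound dissolved in DMSO/acetone/Tween 80 and diluted in water; solvent-only controls. Spore suspension of S. tritici sprayed 24 h later; 72 h at 18 °C/100% RH, then 21 days at 20 °C/90% RH. Efficacy scored 24 days post-inoculation, 0% = control, 100% = no disease.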

Data set [3] deals with Sphaerotheca fuliginea. The experiment in a line: Example IX-C: in vivo preventive test on Sphaerotheca fuliginea (powdery mildew on cucurbits). Conditions: Podosphaera fuliginea, 360 h; compounds of formula IX; 500 ppm of active ingredient; gherkin plants, preventive spray; evaluated 15 days after inoculation; read-out: efficacy. The method in brief:
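Young gherkin plants sprayed with compound in DMSO/acetone/Tween 80 diluted in water, then inoculated 24 h later with Sphaerotheca fuliginea spores. Kept 72 h at 18 °C/100% RH, then 12 days at 20 °C/70-80% RH; efficacy scored 15 days post-inoculation, 0% = control, 100% = no disease.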

For data set [4], the system named is Puccinia recondita. Put plainly: Example IX-A: in vivo preventive test on Puccinia recondita (brown rust on wheat). Conditions: 264 h, compounds of formula IX, 500 ppm of active ingredient, wheat plants, preventive spray, evaluated 11 days after inoculation, read-out: efficacy. The gist of the method: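 Young wheat plants sprayed with compound in DMSO/acetone/Tween 80 diluted in water, inoculated 24 h later with spore suspension. Incubated 24 h at 20 °C, 100% RH, then 10 days at 20 °C, 70-80% RH. Efficacy scored 11 days post-inoculation, 0% equal to solvent-treated controls, 100% no disease.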

The test system of data set [5] is Uromyces appendiculatus. The experiment in a line: Example IX-D: in vivo preventive test on Uromyces appendiculatus (bean rust). Conditions: 264 h, compounds of formula IX, 500 ppm of active ingredient, bean plants, preventive spray, evaluated 11 days after inoculation, read-out: efficacy. The gist of the method:
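Young bean plants sprayed with compound (DMSO/acetone/Tween 80 in water), then inoculated 24 h later with Uromyces appendiculatus spores. Kept 24 h at 20° C, 100% RH, then 10 days at 20° C, 70–80% RH; efficacy scored 11 days post-inoculation, 0% = untreated control, 100% = no disease.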

By chromatographic logP is commonly meant a lipophilicity value derived from retention on a column. Lower therefore signals a more hydrophilic compound.

In turn, `O=C(Cn1cncc1Cl)c1ccc(Oc2ccc(OC(F)(F)F)cc2)cc1Cl` [IX-09] had a chromatographic logP in data set [1] of 3.37. The pest or weed control at 500 ppm in data set [2], in data set [3], in data set [4] and in data set [5] was 90 to 100% in each case.

The molecule `O=C(Cn1cncc1F)c1ccc(Oc2ccc(Cl)cc2)cc1Cl` [IX-65] displayed a chromatographic logP in data set [1] of 2.52. In addition, the pest or weed control at 500 ppm in data set [2], in data set [3], in data set [4] and in data set [5] was 90 to 100% throughout.

In turn, `N#Cc1cncn1CC(=O)c1ccc(Oc2ccc(Cl)cc2)cc1C(F)(F)F` [IX-54] displayed a chromatographic logP in data set [1] of 3.55. The pest or weed control at 500 ppm in data set [2] fell in the range of 90 to 100%; in data set [3] it was 90 to 100%; in data set [4], 90 to 100%; in data set [5] it was 70 to 79%.

Take `N#Cc1cncn1CC(=O)c1cnc(Oc2ccc(Cl)cc2)cc1Cl` [IX-91]: the chromatographic logP in data set [1] was 3. For the same molecule, the pest or weed control at 500 ppm in data set [2], in data set [3], in data set [4] and in data set [5] was 90 to 100% each time.

`O=C(Cn1cncc1F)c1cnc(Oc2ccc(Cl)cc2)cc1Br` [IX-93] registered a chromatographic logP in data set [1] of 2.39. Also, the pest or weed control at 500 ppm in data set [2] lay within 90 to 100%; in data set [3], 90 to 100%; in data set [4], 80 to 89%; in data set [5], 90 to 100%.

`O=C(Cn1cncc1Br)c1ccc(Oc2ccc(Br)cc2)cc1Br` [IX-36] had a chromatographic logP in data set [1] of 3.16. For the same molecule, the pest or weed control at 500 ppm in data set [2] fell in the range of 90 to 100%; in data set [3], 90 to 100%; in data set [4], 80 to 89%; in data set [5], 90 to 100%.

`O=C(Cn1cncc1F)c1cnc(Oc2ccc(Br)cc2)cc1C(F)(F)F` [IX-82, 1-[6-(4-bromophenoxy)-4-(trifluoromethyl)-3-pyridyl]-2-(5-fluoroimidazol-1-yl)ethanone] gave a chromatographic logP in data set [1] of 2.73. Further, the pest or weed control at 500 ppm in data set [2] was 90 to 100%; in data set [3] it was 90 to 100%; in data set [4], 70 to 79%; in data set [5], 90 to 100%.

In data set [1], `N#Cc1cncn1CC(=O)c1ccc(Oc2ccc(Br)cc2)cc1F` [IX-62] returned a chromatographic logP of 3.33. Also, the pest or weed control at 500 ppm in data set [2], in data set [3], in data set [4] and in data set [5] was 90 to 100% throughout.

Take `N#Cc1cncn1CC(=O)c1ccc(Oc2ccc(Br)cc2)cc1Cl` [IX-58, 1-[4-(4-bromophenoxy)-2-chloro-phenyl]-2-(5-cyanoimidazol-1-yl)ethanone]: in data set [1], the chromatographic logP was 3.55. The pest or weed control at 500 ppm in data set [2], in data set [3], in data set [4] and in data set [5] was 90 to 100% throughout.

For the molecule `O=C(Cn1cncc1Cl)c1ccc(Oc2ccc(I)cc2)cc1Cl` [IX-13], the chromatographic logP in data set [1] was determined as 3.41. For the same molecule, the pest or weed control at 500 ppm in data set [2], in data set [3], in data set [4] and in data set [5] was 90 to 100% each time.

As for `N#Cc1cncn1CC(=O)c1ccc(Oc2ccc(S(F)(F)(F)(F)F)cc2)nc1Cl` [IX-74], the chromatographic logP in data set [1] came out at 3.42. The pest or weed control at 500 ppm in data set [2], in data set [3], in data set [4] and in data set [5] was 90 to 100% throughout.

As for `O=C(Cn1cncc1Br)c1ccc(Oc2ccc(Cl)cc2)cc1Br` [IX-33], the chromatographic logP in data set [1] stood at 3.13. The pest or weed control at 500 ppm in data set [2], in data set [3], in data set [4] and in data set [5] was 90 to 100% in each case.

Molecule `N#Cc1cncn1CC(=O)c1ccc(Oc2ccc(Cl)cc2)nc1C(F)(F)F` [IX-107] registered a chromatographic logP in data set [1] of 3.33. Also, the pest or weed control at 500 ppm in data set [2] fell in the range of 90 to 100%; in data set [3], 90 to 100%; in data set [4], 90 to 100%; in data set [5] it was 80 to 89%.

Take `O=C(Cn1cncc1F)c1ccc(Oc2ccc(Cl)cc2)nc1F` [IX-88]: the chromatographic logP in data set [1] was 2.14. The pest or weed control at 500 ppm in data set [2] lay within 90 to 100%; in data set [3], 90 to 100%; in data set [4] it was 70 to 79%; in data set [5] it was 80 to 89%.

Turning to `O=C(Cn1cncc1Cl)c1cnc(Oc2ccc(Cl)cc2)cc1C(F)(F)F` [IX-43], the chromatographic logP in data set [1] is 3.09. Also, the pest or weed control at 500 ppm was 90 to 100% in data set [2], 90 to 100% in data set [3], 80 to 89% in data set [4] and 90 to 100% in data set [5].

As to `O=C(Cn1cncc1Cl)c1ccc(Oc2ccc(Br)nc2)cc1Cl` [IX-78], the chromatographic logP in data set [1] was found to be 2.32. Also, the pest or weed control at 500 ppm in data set [2] lay within 90 to 100%; in data set [3] it was 90 to 100%; in data set [4], 80 to 89%; in data set [5], 90 to 100%.

As for `O=C(Cn1cncc1F)c1cnc(Oc2ccc(Cl)cc2)cc1C(F)(F)F` [IX-104], the chromatographic logP in data set [1] stood at 2.5. Besides, the pest or weed control at 500 ppm in data set [2], in data set [3], in data set [4] and in data set [5] was 90 to 100% throughout.

`O=C(Cn1cncc1Cl)c1ccc(Oc2ccc(I)cc2)cc1Br` [IX-38] displayed a chromatographic logP in data set [1] of 3.35. In addition, the pest or weed control at 500 ppm in data set [2], in data set [3], in data set [4] and in data set [5] was 90 to 100% each time.

As to `O=C(Cn1cncc1Cl)c1ccc(Oc2ccc(Cl)cn2)cc1Cl` [IX-05], the chromatographic logP in data set [1] is 2.53. The pest or weed control at 500 ppm in data set [2] was in the range of 80 to 89%; in data set [3] it was 90 to 100%; in data set [4], 70 to 79%; in data set [5], 80 to 89%.

In data set [1], `O=C(Cn1cncc1Br)c1ccc(Oc2ccc(I)cc2)cc1Cl` [IX-32] showed a chromatographic logP of 3.35. The pest or weed control at 500 ppm was in the range of 90 to 100% in data set [2], 90 to 100% in data set [3], 80 to 89% in data set [4] and 90 to 100% in data set [5].

In the case of `O=C(Cn1cncc1Cl)c1ccc(Oc2ccc(Cl)cc2)cc1Br` [IX-34], the chromatographic logP in data set [1] was determined as 3.15. In addition, the pest or weed control at 500 ppm in data set [2] was in the range of 90 to 100%; in data set [3] it was 90 to 100%; in data set [4], 80 to 89%; in data set [5] it was 90 to 100%.

As to `O=C(Cn1cncc1Br)c1ccc(Oc2ccc(I)cc2)cc1Br` [IX-42], the chromatographic logP in data set [1] was found to be 3.55. Further, the pest or weed control at 500 ppm in data set [2] was in the range of 90 to 100%; in data set [3], 90 to 100%; in data set [4] it was 80 to 89%; in data set [5] it was 90 to 100%.
